No end group written: not given here.
Test system: adjuvant arthritis (Freund's complete adjuvant)
Assay: Protective effect of peptide A on adjuvant arthritis in rats
Assay type: in vivo, SD rats
Conditions: for ankle joint swelling value: X±SD; for ankle joint swelling value / Lesion scoring ( X ± SD), joint lesion severity: n=10; for inhibition rate of ankle joint swelling: vs model group; for Lesion scoring ( X ± SD), joint lesion severity: 32nd day, left rear ankle joint histopathology, lower score = milder
Description: SPF-level SD rats, each weighting 180 g-220 g, with male and female each in half, provided by Experimental Animal Center of Chinese Academy of Military Medical.
Peptide A (which was prepared with the same procedure as in Embodiment 1). It was to be dissolved in physiological saline when used.
SD rats, with male and female each in half, were randomly divided into five groups with 10 rats in each group, respectively were model group (employing physiological saline and Freund's complete adjuvant); control group (employing the same volume of physiological saline as the model group); peptide A high, medium and low dose groups (employing Freund's complete adjuvant and peptide A, wherein each group was given different doses of peptide A, respectively were 174 μg/kg·d, 87 μg/kg·d and 43.5 μg/kg·d, peptide A was dissolved in physiological saline to form peptide A solution with desired concentration). Peptide A solution in each dose was administered by subcutaneous injection, 0.1 ml of peptide A solution per 100 g body weight of rats. The control group employed the same amount of physiological saline as the peptide A solution (0.1 ml of physiological saline per 100 g body weight of rats).
Each group rats were administered according to the following manner. These rats were normally fed every day during the administration.
On the 1st day (including this day), except the control group, for rats of other groups (the model group and the peptide A high, medium and low dose groups), 0.5 ml of Freund's complete adjuvant was subcutaneously injected into plantar skin of right rear foot of every rat. Then, they were subcutaneously injected with 0.05 ml of Freund's complete adjuvant for one time every other day, a total of 15 times.
From the 2nd day (including this day), the rats of peptide A high, medium and low dose groups each were administered with corresponding the dose of peptide A. Then, they were subcutaneously injected with the dose the amount of peptide A for one time every other day, a total of 15 times. At the same time, the rats of the control group and the model group were subcutaneously injected the same amount of physiological saline as that of the peptide A for the high, medium and low dose groups for one time every other day, a total of 15 times.
Measurement for the experimental results was conducted as follows. Firstly, before administration to rats of each group, left rear ankle circumference […] of each rat was measured by a flexible rule as a base value, and then circumference of left rear ankle with inflammation of each rat was measured at the 4th, 8th, 12th, 16th, 20th, 24th, 28th, and 32nd day, respectively. Swelling value obtained by circumference after inflammation minus circumference before inflammation was used to observe changes of primary and secondary inflammation of Freund's complete adjuvant-induced rats.
Secondly, at the 32nd day, rats of each group were killed, and their left rear foot ankle joints ware quickly taken out, fixed in 10% formalin and then embedded in paraffin after decalcification, sectioned and stained with HE. The proliferation of synovial tissue, degeneration of covering epithelial cells (synovial cells), congestion of interstitial substance, inflammatory cell infiltration, damage or fibrosis of arthrodial cartilage, and inflammatory cell infiltration or fibrosis of subcutaneous tissue around the joint, were observed. According to severity of joint lesions, the lesions were scored as “1 score (few or mild lesion)”, “2 scores (moderate or medium lesion)”, “3 scores (large or severe lesion)”, and “4 scores (very severe lesion)”. Very mild lesion was scored as “0.5”, and no lesion tissue was scored as “0”. Accumulate all scores to obtain a total score for one group, and then calculate average score ( X±SD) for each animal in each group. The lower score indicates the milder grade of the lesion. […]

[1] = high dose 174 μg/kg·d s.c., the 4th day
[2] = high dose 174 μg/kg·d s.c., the 8th day
[3] = high dose 174 μg/kg·d s.c., the 12th day
[4] = high dose 174 μg/kg·d s.c., the 16th day
[5] = high dose 174 μg/kg·d s.c., the 20th day
[6] = high dose 174 μg/kg·d s.c., the 24th day
[7] = high dose 174 μg/kg·d s.c., the 28th day
[8] = high dose 174 μg/kg·d s.c., the 32nd day
[9] = low dose 43.5 μg/kg·d s.c., the 4th day
[10] = low dose 43.5 μg/kg·d s.c., the 8th day
[11] = low dose 43.5 μg/kg·d s.c., the 12th day
[12] = low dose 43.5 μg/kg·d s.c., the 16th day
[13] = low dose 43.5 μg/kg·d s.c., the 20th day
[14] = low dose 43.5 μg/kg·d s.c., the 24th day
[15] = low dose 43.5 μg/kg·d s.c., the 28th day
[16] = low dose 43.5 μg/kg·d s.c., the 32nd day
[17] = medium dose 87 μg/kg·d s.c., the 4th day
[18] = medium dose 87 μg/kg·d s.c., the 8th day
[19] = medium dose 87 μg/kg·d s.c., the 12th day
[20] = medium dose 87 μg/kg·d s.c., the 16th day
[21] = medium dose 87 μg/kg·d s.c., the 20th day
[22] = medium dose 87 μg/kg·d s.c., the 24th day
[23] = medium dose 87 μg/kg·d s.c., the 28th day
[24] = medium dose 87 μg/kg·d s.c., the 32nd day

Substance: GQTYTSG [Peptide A]
- arthritis lesion (histopathology) after administration (all dose groups, effect in descending order high, medium, low): reduced in different degrees
- ankle joint swelling value [1]: 8.5 ± 1.5 mm
- inhibition rate of ankle joint swelling [1]: (17.5%)
- ankle joint swelling value [2]: 10.2 ± 1.7 mm
- inhibition rate of ankle joint swelling [2]: (28.2%)
- ankle joint swelling value [3]: 10.8 ± 1.5 mm
- inhibition rate of ankle joint swelling [3]: (31.6%)
- ankle joint swelling value [4]: 11.1 ± 1.6 mm
- inhibition rate of ankle joint swelling [4]: (39.7%)
- ankle joint swelling value [5]: 11.4 ± 1.8 mm
- inhibition rate of ankle joint swelling [5]: (37.4%)
- ankle joint swelling value [6]: 10.8 ± 1.7 mm
- inhibition rate of ankle joint swelling [6]: (38.3%)
- ankle joint swelling value [7]: 10.4 ± 1.8 mm
- inhibition rate of ankle joint swelling [7]: (37.7%)
- ankle joint swelling value [8]: 9.5 ± 1.9 mm
- inhibition rate of ankle joint swelling [8]: (39.9%)
- Lesion scoring ( X ± SD), joint lesion severity (high dose group (174 μg/kg·d s.c.)): 3.60 ± 1.26
- inhibition rate to the joint swelling (high dose group (174 μg/kg·d)): ~40%
- joint swelling compared with rats of the model group (high, medium and low dose groups, observation): significantly reduced joint swelling
- skin ulcer symptom (high, medium and low dose groups, part of model rats had skin ulcers on the 24th day): did not have skin ulcer symptom
- ankle joint swelling value [9]: 9.3 ± 1.4 mm
- inhibition rate of ankle joint swelling [9]: (9.7%)
- ankle joint swelling value [10]: 13.5 ± 2.1 mm
- inhibition rate of ankle joint swelling [10]: (4.9%)
- ankle joint swelling value [11]: 13.9 ± 1.6 mm
- inhibition rate of ankle joint swelling [11]: (12.0%)
- ankle joint swelling value [12]: 14.2 ± 1.7 mm
- inhibition rate of ankle joint swelling [12]: (22.8%)
- ankle joint swelling value [13]: 14.6 ± 2.3 mm
- inhibition rate of ankle joint swelling [13]: (19.8%)
- ankle joint swelling value [14]: 14.2 ± 1.4 mm
- inhibition rate of ankle joint swelling [14]: (18.8%)
- ankle joint swelling value [15]: 14.0 ± 1.8 mm
- inhibition rate of ankle joint swelling [15]: (16.2%)
- ankle joint swelling value [16]: 13.8 ± 1.5 mm
- inhibition rate of ankle joint swelling [16]: (12.6%)
- Lesion scoring ( X ± SD), joint lesion severity (low dose group (43.5 μg/kg·d s.c.)): 4.10 ± 0.99
- ankle joint swelling value [17]: 8.9 ± 1.6 mm
- inhibition rate of ankle joint swelling [17]: (13.6%)
- ankle joint swelling value [18]: 11.9 ± 1.8 mm
- inhibition rate of ankle joint swelling [18]: (16.2%)
- ankle joint swelling value [19]: 12.1 ± 2.3 mm
- inhibition rate of ankle joint swelling [19]: (23.4%)
- ankle joint swelling value [20]: 12.9 ± 1.8 mm
- inhibition rate of ankle joint swelling [20]: (29.9%)
- ankle joint swelling value [21]: 13.2 ± 1.4 mm
- inhibition rate of ankle joint swelling [21]: (27.5%)
- ankle joint swelling value [22]: 13.0 ± 1.8 mm
- inhibition rate of ankle joint swelling [22]: (25.7%)
- ankle joint swelling value [23]: 12.8 ± 1.6 mm
- inhibition rate of ankle joint swelling [23]: (23.4%)
- ankle joint swelling value [24]: 12.5 ± 1.8 mm
- inhibition rate of ankle joint swelling [24]: (20.9%)
- Lesion scoring ( X ± SD), joint lesion severity (medium dose group (87 μg/kg·d s.c.)): 4.00 ± 0.67

Source: patent US20140235545A1, “The use of HCV immunogenic peptide or a derivative thereof in the prevention or treatment of arthritis” (priority 2011, published 2014)
